Results: patent US10308663B2, “Inhibitors of PTP4A3 for the treatment of cancer” (University of Virginia Patent Foundation, priority 2015, dated 2019)

Tests used:
[1] = tested on: A2780CW (Cisplatin sensitive); test: Ovarian cancer cell drug susceptibility (Alamar blue), A2780CW; type: cell-based, human; conditions: 44 h + 4 h Alamar blue
SKOV3 = test: Ovarian cancer cell drug susceptibility (Alamar blue), SKOV3; type: cell-based, human; conditions: 44 h + 4 h Alamar blue
[2] = tested on: A2780CP20 (Cisplatin resistant); test: Ovarian cancer cell drug susceptibility (Alamar blue), A2780CP20; type: cell-based, human; conditions: 44 h + 4 h Alamar blue
OVCAR-4 = test: Ovarian cancer cell drug susceptibility (Alamar blue), OVCAR-4; type: cell-based, human; conditions: 44 h + 4 h Alamar blue
PTP1B = PTP1B (Homo sapiens (Human), UniProt P18031); conditions: DiFMUP as a substrate; reported by Hoeger et al.; cited from earlier work
[3] = Spontaneous conversion of 5 to 6 under assay conditions; type: physicochemical; conditions: 90 min, in the presence or absence of DTT
PTP-Tcell = PTP-Tcell (Homo sapiens (Human), UniProt P17706); conditions: DiFMUP as a substrate; reported by Hoeger et al.; cited from earlier work
SHP2 cat = SHP2 cat (Homo sapiens (Human), UniProt Q06124); conditions: DiFMUP as a substrate; reported by Hoeger et al.; cited from earlier work
LARD1 = LARD1 (Homo sapiens (Human), UniProt P10586); conditions: DiFMUP as a substrate; reported by Hoeger et al.; cited from earlier work
HCP cat = HCP cat (Homo sapiens (Human), UniProt P29350); conditions: DiFMUP as a substrate; reported by Hoeger et al.; cited from earlier work
PTPb cat = PTPb cat (Homo sapiens (Human), UniProt P23467); conditions: DiFMUP as a substrate; reported by Hoeger et al.; cited from earlier work
[4] = tested on: MsTuWT cells (Ptp4a3 wildtype); test: Cell adhesion assay (xCELLigence), MsTuWT; type: cell-based, mouse; conditions: xCELLigence Cell Index
PTPaD1 = PTPaD1 (Homo sapiens (Human), UniProt P18433); conditions: DiFMUP as a substrate; reported by Hoeger et al.; cited from earlier work
PTPeD1 = PTPeD1 (Homo sapiens (Human), UniProt P23469); conditions: DiFMUP as a substrate; reported by Hoeger et al.; cited from earlier work
CD45 = CD45 (Homo sapiens (Human), UniProt P08575); conditions: DiFMUP as a substrate; reported by Hoeger et al.; cited from earlier work
PTPgD1 = PTPgD1 (Homo sapiens (Human), UniProt P23470); conditions: DiFMUP as a substrate; reported by Hoeger et al.; cited from earlier work
Sequence of PTPgD1 (P23470 848-1119): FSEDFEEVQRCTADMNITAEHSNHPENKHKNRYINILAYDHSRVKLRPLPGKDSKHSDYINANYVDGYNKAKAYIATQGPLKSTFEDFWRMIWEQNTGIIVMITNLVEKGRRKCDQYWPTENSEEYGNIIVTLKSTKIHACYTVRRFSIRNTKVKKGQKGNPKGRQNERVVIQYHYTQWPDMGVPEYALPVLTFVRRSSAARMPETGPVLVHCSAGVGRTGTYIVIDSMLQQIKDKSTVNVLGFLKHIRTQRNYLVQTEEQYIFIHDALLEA

Sequence of LARD1 (P10586 1352-1607): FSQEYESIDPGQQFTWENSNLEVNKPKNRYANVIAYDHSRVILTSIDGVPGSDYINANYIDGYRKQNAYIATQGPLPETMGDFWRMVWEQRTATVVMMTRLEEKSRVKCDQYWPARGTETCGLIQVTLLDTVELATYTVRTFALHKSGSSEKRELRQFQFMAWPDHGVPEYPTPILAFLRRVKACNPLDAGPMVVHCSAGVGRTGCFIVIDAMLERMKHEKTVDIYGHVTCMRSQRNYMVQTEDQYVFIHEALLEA
Sequence of HCP cat (P29350 244-515): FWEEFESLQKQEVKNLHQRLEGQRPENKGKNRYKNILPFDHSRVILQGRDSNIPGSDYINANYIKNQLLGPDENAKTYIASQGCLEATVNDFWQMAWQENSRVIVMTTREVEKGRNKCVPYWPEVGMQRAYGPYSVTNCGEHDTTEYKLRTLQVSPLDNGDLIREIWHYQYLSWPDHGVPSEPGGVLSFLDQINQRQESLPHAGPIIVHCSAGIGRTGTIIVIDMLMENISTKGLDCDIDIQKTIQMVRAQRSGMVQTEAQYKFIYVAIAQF
Sequence of PTPb cat (P23467 1703-1963): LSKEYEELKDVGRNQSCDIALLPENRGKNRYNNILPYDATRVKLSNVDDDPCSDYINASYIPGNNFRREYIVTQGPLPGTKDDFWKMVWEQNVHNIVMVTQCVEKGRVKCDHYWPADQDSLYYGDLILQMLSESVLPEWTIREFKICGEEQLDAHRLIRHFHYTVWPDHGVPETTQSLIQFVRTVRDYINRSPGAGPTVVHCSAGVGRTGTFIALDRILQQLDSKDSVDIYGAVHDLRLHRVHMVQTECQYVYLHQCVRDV
Sequence of PTPaD1 (P18433 241-501): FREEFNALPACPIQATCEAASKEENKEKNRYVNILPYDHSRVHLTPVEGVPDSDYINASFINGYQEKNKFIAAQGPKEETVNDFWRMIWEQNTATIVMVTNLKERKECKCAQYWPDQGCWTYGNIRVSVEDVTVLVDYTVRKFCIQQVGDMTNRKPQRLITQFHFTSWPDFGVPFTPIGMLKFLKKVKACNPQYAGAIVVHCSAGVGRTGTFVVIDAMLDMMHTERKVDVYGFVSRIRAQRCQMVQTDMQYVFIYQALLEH
Sequence of PTPeD1 (P23469 135-394): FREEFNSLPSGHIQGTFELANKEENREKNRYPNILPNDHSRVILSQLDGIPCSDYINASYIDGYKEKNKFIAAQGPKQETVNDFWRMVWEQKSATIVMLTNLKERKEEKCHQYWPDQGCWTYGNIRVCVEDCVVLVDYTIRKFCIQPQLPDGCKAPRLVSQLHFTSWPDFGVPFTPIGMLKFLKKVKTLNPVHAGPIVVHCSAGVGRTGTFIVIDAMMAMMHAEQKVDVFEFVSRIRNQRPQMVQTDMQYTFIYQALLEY
Sequence of SHP2 cat (Q06124 247-517): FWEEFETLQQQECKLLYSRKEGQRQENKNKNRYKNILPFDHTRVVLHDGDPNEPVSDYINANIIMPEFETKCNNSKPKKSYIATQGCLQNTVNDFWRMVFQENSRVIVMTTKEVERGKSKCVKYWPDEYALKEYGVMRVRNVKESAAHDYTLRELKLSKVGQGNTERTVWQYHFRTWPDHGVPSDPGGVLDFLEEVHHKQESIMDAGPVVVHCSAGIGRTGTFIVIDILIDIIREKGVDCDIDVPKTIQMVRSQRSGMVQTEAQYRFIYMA
Sequence of PTP1B (P18031 whole entry, species assumed): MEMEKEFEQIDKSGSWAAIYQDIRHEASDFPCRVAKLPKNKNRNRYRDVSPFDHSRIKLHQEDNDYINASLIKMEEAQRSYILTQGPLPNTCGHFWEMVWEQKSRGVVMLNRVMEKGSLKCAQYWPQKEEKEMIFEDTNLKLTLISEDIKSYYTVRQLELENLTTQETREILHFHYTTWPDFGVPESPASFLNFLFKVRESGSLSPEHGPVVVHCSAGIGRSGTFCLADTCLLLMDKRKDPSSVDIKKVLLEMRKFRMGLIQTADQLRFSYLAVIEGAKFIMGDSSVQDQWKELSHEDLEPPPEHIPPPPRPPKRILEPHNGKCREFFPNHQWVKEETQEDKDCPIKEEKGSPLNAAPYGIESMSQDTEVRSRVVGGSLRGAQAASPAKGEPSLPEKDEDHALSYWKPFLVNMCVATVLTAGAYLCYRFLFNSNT
Sequence of CD45 (P08575 26-1306, species assumed): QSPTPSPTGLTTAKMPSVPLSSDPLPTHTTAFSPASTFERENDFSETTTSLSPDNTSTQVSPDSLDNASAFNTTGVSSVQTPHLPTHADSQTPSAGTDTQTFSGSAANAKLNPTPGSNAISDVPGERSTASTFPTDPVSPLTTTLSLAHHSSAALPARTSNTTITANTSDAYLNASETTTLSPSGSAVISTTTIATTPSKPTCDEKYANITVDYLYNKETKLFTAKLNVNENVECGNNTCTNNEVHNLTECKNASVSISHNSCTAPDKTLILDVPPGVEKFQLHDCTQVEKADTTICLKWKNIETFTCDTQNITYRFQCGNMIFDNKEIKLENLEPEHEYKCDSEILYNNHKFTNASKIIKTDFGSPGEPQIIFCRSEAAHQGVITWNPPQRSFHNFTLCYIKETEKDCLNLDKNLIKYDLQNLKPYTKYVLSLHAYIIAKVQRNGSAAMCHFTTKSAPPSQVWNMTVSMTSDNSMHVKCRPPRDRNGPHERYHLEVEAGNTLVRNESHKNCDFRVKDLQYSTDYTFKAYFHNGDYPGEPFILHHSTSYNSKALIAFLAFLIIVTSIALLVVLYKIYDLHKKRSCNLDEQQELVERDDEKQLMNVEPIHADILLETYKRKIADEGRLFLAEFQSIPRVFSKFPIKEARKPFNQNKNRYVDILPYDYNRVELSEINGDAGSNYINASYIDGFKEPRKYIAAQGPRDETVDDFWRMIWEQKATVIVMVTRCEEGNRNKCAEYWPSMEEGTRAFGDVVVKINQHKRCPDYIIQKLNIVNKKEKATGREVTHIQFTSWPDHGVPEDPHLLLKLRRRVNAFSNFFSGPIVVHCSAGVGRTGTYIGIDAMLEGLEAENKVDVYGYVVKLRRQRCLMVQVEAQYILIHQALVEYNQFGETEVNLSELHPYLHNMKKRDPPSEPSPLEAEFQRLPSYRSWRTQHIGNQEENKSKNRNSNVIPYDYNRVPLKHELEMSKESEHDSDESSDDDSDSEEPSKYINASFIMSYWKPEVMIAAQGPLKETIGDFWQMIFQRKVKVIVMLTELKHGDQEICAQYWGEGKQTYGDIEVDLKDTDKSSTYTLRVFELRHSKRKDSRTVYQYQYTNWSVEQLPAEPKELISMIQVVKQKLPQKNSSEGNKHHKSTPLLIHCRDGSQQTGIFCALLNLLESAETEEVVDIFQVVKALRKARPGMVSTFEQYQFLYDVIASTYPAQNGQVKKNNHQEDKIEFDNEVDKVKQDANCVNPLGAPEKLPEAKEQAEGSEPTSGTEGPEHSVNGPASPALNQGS
Sequence of PTP-Tcell (P17706 whole entry): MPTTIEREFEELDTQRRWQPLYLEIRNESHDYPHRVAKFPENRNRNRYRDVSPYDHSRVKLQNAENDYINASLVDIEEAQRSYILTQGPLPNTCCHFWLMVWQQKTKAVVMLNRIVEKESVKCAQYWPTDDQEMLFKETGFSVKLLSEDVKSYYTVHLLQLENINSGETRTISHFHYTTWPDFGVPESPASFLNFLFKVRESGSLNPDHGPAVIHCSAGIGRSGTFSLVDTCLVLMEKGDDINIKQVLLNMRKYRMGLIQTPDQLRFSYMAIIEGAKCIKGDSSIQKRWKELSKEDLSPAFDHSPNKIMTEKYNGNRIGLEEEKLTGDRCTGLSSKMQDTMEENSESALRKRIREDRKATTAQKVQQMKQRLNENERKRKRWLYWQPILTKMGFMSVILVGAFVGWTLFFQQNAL

EC50 ([1]; Homo sapiens)	EC50 (SKOV3; Homo sapiens, SK-OV-3)	EC50 ([2]; Homo sapiens)	EC50 (OVCAR-4; Homo sapiens, OVCAR-4)	SMILES	EC50 [1]	EC50 (SKOV3)	EC50 [2]	EC50 (OVCAR-4)	IC50 (PTP1B)	spontaneous conversion of 5 to 6 [3]	IC50 (PTP-Tcell)	IC50 (SHP2 cat)	IC50 (LARD1)	IC50 (HCP cat)	IC50 (PTPb cat)	MsTuWT adherence [4]	IC50 (PTPaD1)	IC50 (PTPeD1)	IC50 (CD45)	IC50 (PTPgD1)
26.4 ± 1 µM	48.3 ± 9.1 µM	17.3 ± 2 µM	48.5 ± 7.9 µM	O=C1NC(=S)S/C1=C/c1cc(Br)ccc1OCc1ccccc1Br [BR-1]	–	–	–	–	–	–	–	–	–	–	–	–	–	–	–	–
–	–	–	–	N.N.[Cl][Pt][Cl] [Cisplatin]	3.7 ± 1.8 µM	> 100 µM	> 100 µM	30.3 ± 4.4 µM	–	–	–	–	–	–	–	–	–	–	–	–
> 50 µM	> 50 µM	> 50 µM	> 50 µM	O=c1[nH]c(=O)c2cc(-c3ccccc3)sc2[nH]1 [JMS-557-038]	–	–	–	–	–	–	–	–	–	–	–	–	–	–	–	–

SMILES	EC50 ([1]; Homo sapiens)	EC50 (SKOV3; Homo sapiens, SK-OV-3)	EC50 ([2]; Homo sapiens)	EC50 (OVCAR-4; Homo sapiens, OVCAR-4)	EC50 [1]	EC50 (SKOV3)	EC50 [2]	EC50 (OVCAR-4)	IC50 (PTP1B)	spontaneous conversion of 5 to 6 [3]	IC50 (PTP-Tcell)	IC50 (SHP2 cat)	IC50 (LARD1)	IC50 (HCP cat)	IC50 (PTPb cat)	MsTuWT adherence [4]	IC50 (PTPaD1)	IC50 (PTPeD1)	IC50 (CD45)	IC50 (PTPgD1)
Nc1c[nH]c(=O)c2cc(-c3ccccc3)sc12 [Thienopyridone (5), 7-amino-2-phenylthieno[3,2-c]pyridin-4(5H)-one]	4.5 ± 0.6 µM	28.8 ± 2.2 µM	13.1 ± 6 µM	15.5 ± 2.4 µM	–	–	–	–	> 100 µM	not detect quantifiable (>5%) spontaneous conversion	> 100 µM	> 100 µM	> 100 µM	71 µM	67 µM	inhibited	> 100 µM	> 100 µM	> 100 µM	> 100 µM
